Measured values: patent EP4610257A1, “CRYSTAL FORM OF ISOQUINOLINONE COMPOUND AND PREPARATION METHOD THEREFOR” (Jiangsu Hengrui Pharmaceuticals Co., Ltd., priority 2022, dated 2024)

What was measured:
in vivo = assay: in vivo; set-up: species or system ICR mice; conditions: both sexes, ICR, mouse, inhaled or intranasal
Protocol: Test Example 3: PK Assay by Intratracheal Administration
Time points for plasma collection were: 0.25 h, 0.5 h, 1 h, 2 h, 4 h, 8 h, 12 h, and 24 h. […] Time points for lung tissue collection were: 0.5 h, 2 h, 8 h, and 24 h.
30.0 µL of plasma sample was added to a 1.5 mL centrifuge tube, and 150 µL of an internal standard working solution was added. […] 70.0 µL of the supernatant was added to a 96-well plate, and 70.0 µL of deionized water was added. The resulting mixture was well shaken, and 2.00 µL of the mixture was taken for LC-MS/MS analysis.
An appropriate amount of the lung tissue sample was accurately weighed out and placed into a homogenate tube, and acetonitrile was added at a volume equivalent to 5 times the weight of the sample. The mixture was homogenized and ultrasonicated for 5 min. 20.0 µL of the lung tissue homogenate sample was taken, and 30.0 µL of an internal standard working solution and 200 µL of acetonitrile were added. […] 100 µL of the supernatant was added to a 96-well plate, and 100 µL of deionized water was added.

PDE4B1 = PDE4B1 (Homo sapiens, UniProt Q07343); assay: In vitro PDE4B enzyme activity assay, IMAP FP-based; conditions: for inhibition at 2 µM: read-out: Inhibition rate (%) PDE4B1(2000 nM)
PDE3A = PDE3A (Homo sapiens, UniProt Q14432); assay: In vitro PDE3A enzyme activity assay, IMAP FP-based
Chain of PDE3A (Q14432 669-1141 limits assumed): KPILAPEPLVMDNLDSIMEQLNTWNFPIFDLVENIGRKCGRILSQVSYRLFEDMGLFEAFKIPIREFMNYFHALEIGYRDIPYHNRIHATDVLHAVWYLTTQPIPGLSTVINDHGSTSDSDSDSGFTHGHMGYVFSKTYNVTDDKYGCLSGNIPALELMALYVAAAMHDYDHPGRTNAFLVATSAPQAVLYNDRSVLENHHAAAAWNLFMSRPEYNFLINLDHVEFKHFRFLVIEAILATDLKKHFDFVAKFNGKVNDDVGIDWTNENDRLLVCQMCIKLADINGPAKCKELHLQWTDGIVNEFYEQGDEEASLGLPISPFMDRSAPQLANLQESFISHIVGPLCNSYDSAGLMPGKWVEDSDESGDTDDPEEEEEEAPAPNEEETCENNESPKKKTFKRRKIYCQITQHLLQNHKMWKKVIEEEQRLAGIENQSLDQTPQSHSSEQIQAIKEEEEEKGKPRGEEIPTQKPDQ

Chain of PDE4B1 (Q07343 whole entry): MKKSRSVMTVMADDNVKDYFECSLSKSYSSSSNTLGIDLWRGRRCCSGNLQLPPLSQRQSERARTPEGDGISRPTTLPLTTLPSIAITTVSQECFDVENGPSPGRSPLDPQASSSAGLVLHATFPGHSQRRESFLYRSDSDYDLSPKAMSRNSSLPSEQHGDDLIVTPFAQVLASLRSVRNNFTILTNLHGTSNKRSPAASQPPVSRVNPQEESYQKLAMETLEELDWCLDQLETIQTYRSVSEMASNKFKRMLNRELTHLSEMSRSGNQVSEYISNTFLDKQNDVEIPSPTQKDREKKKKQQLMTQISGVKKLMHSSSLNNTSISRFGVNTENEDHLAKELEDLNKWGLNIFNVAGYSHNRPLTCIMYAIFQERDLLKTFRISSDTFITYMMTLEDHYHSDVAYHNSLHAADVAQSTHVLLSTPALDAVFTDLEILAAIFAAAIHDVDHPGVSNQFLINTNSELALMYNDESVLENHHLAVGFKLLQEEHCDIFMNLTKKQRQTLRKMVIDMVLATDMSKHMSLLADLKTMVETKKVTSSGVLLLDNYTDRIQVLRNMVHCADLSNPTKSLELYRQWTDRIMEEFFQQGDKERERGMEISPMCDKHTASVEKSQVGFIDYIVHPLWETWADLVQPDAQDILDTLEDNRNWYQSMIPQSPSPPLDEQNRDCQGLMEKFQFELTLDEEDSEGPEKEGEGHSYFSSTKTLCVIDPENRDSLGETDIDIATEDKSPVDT

Compound | half-life (in vivo) [min] | Tmax (in vivo; Plasma Tmax (h)) [min] | IC50 (PDE4B1) [nM] | inhibition at 2 µM (PDE4B1) [%] | IC50 (PDE3A) [nM] | inhibition at 0.5 µM (PDE3A; read-out: Inhibition rate (%) PDE3A (500 nM)) [%]
COc1cc2c(cc1OC)-c1cc(=Nc3c(C)cc(C)cc3C)n(CCNC(N)=O)c(=O)n1CC2 [RPL554, 9,10-dimethoxy-2-(2,4,6-trimethylphenylimino)-3-(N-carbamoyl-2-aminoethyl)-3,4,6,7-tetrahydro-2H-pyrimido[6,1-a]isoquinolin-4-one] | 52.8 | 15 | 110 | 64.2 | 0.25 | 99.2
CCOc1cc2c(cc1OC)-c1cc(=Nc3c(C)cc(C)cc3C)n(CCN3CCOC3=O)c(=O)n1CC2 [WX001] | – | – | 876 | 66.3 | – | –
